Patent publication US8133847B2, “Pyrido[2,3-B]pyrazine derivatives useful as herbicidal compounds” (Syngenta Limited, priority 2006, dated 2012)

Experiments:
Assay in all cases: Example B1 herbicidal action, post-emergence, 96-cell seed trays, climatic chamber
Type in all cases: in vivo
[1] = system: Amaranthus retroflexus (AMARE); details: Application post-emergence, 1000 mg/l spray equivalent to 1000 g/ha, evaluated after 9 days
Method in brief: (§1)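 Plants at 8–9 days post-sowing (23/17 °C, 13 h light, 50–60% humidity) sprayed post-emergence with 1000 mg/l active ingredient in 10% DMSO, equivalent to 1000 g/ha. Grown on at 24/19 °C, watered twice daily; damage scored after 9 days (0 = none, 100 = total).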

Stellaria media (STEME) = details: Application post-emergence, 1000 mg/l spray equivalent to 1000 g/ha, evaluated after 9 days (100=total damage to plant, 0=no damage to plant)
Method in brief: as §1

Solanum nigrum (SOLNI) = details: Application post-emergence, 1000 mg/l spray equivalent to 1000 g/ha, evaluated after 9 days (100=total damage to plant, 0=no damage to plant)
Method in brief: as §1

[2] = system: Nasturtium officinale (NAAOF); design: scale not given here; details: Application post-emergence, 1000 mg/l spray equivalent to 1000 g/ha, evaluated after 9 days (100=total damage to plant, 0=no damage to plant)
Method in brief: as §1

| Structure (SMILES) | damage to plant, Amaranthus retroflexus (AMARE) [1] | damage to plant, Stellaria media (STEME) (Stellaria media (STEME)) | damage to plant, Solanum nigrum (SOLNI) (Solanum nigrum (SOLNI)) | damage to plant, Nasturtium officinale (NAAOF) [2] |
| --- | --- | --- | --- | --- |
| CCn1c(=O)c(-c2c(C)cc(C)cc2C)c(OC(C)=O)c2nccnc21 [Compound C81] | 5 | 8 | 4 | 8 |
| CC(C)C(=O)Oc1c(-c2c(F)ccc(F)c2Cl)c(=O)n(C)c2nc(Cl)cnc12 [Compound C82] | 4 | 0 | 0 | 0 |
| CC(C)C(=O)Oc1c(-c2c(F)ccc(F)c2Cl)c(=O)n(C)c2ncc(Cl)nc12 [Compound C83] | 0 | 0 | 1 | 0 |
| Cn1c(=O)c(-c2c(F)ccc(F)c2Cl)c(OC(=O)c2ccccc2)c2nccnc21 [Compound C84] | 6 | 7 | 8 | 5 |
| COc1cccc(C(=O)Oc2c(-c3c(F)ccc(F)c3Cl)c(=O)n(C)c3nccnc23)c1 [Compound C85] | 5 | 4 | 4 | 3 |
| Cn1c(=O)c(-c2c(F)ccc(F)c2Cl)c(OC(=O)c2ccco2)c2nccnc21 [Compound C86] | 7 | 6 | 7 | 6 |
| CCC(C)C(=O)Oc1c(-c2c(F)ccc(F)c2Cl)c(=O)n(C)c2nccnc12 (stereo not drawn) [Compound C87] | 6 | 2 | 6 | 4 |
| CCC(CC)C(=O)Oc1c(-c2c(F)ccc(F)c2Cl)c(=O)n(C)c2nccnc12 [Compound C89] | 5 | 5 | 4 | 5 |
| CC(C)=CC(=O)Oc1c(-c2c(F)ccc(F)c2Cl)c(=O)n(C)c2nccnc12 [Compound C90] | 3 | 7 | 8 | 6 |
| Cn1c(=O)c(-c2c(F)ccc(F)c2Cl)c(OC(=O)c2cccs2)c2nccnc21 [Compound C91] | 7 | 8 | 8 | 4 |
| CCCCC(CC)C(=O)Oc1c(-c2c(F)ccc(F)c2Cl)c(=O)n(C)c2nccnc12 (stereo not drawn) [Compound C92] | 5 | 6 | 7 | 2 |
| CCC(C(=O)Oc1c(-c2c(F)ccc(F)c2Cl)c(=O)n(C)c2nccnc12)c1ccccc1 (stereo not drawn) [Compound C94] | 5 | 6 | 4 | 7 |
| CCCC(C)C(=O)Oc1c(-c2c(F)ccc(F)c2Cl)c(=O)n(C)c2nccnc12 (stereo not drawn) [Compound C95] | 6 | 7 | 5 | 7 |
| CCCC(CCC)C(=O)Oc1c(-c2c(F)ccc(F)c2Cl)c(=O)n(C)c2nccnc12 [Compound C96] | 5 | 6 | 3 | 3 |
| CC(CC(=O)Oc1c(-c2c(F)ccc(F)c2Cl)c(=O)n(C)c2nccnc12)CC(C)(C)C (stereo not drawn) [Compound C98] | 5 | 1 | 2 | 2 |
| Cc1noc(C)c1C(=O)Oc1c(-c2c(F)ccc(F)c2Cl)c(=O)n(C)c2nccnc12 [Compound C100] | 6 | 3 | 5 | 6 |
| C=CCCCCCCCCC(=O)Oc1c(-c2c(F)ccc(F)c2Cl)c(=O)n(C)c2nccnc12 [Compound C101] | 7 | 2 | 4 | 3 |
| Cc1cc(C(=O)Oc2c(-c3c(F)ccc(F)c3Cl)c(=O)n(C)c3nccnc23)c(C)o1 [Compound C102] | 4 | 7 | 7 | 7 |
| CCn1c(=O)c(-c2c(C)cc(C)cc2C)c(OC(=O)C(C)C)c2nccnc21 [Compound C103] | 4 | 7 | 7 | 6 |
| CCn1c(=O)c(-c2cc(C(F)(F)F)cc(C(F)(F)F)c2)c(OC(C)=O)c2nccnc21 [Compound C104] | 2 | 0 | 0 | 4 |
| Cn1c(=O)c(-c2c(F)ccc(F)c2Cl)c(OC(=O)C(C)(C)C)c2nccnc21 [Compound C105] | 5 | 8 | 5 | 6 |
| Cn1c(=O)c(-c2c(Cl)ccc(Cl)c2Cl)c(OC(=O)C(C)(C)C)c2nccnc21 [Compound C108] | 6 | 5 | 3 | 5 |
| Cn1c(=O)c(-c2ccccc2C(F)(F)F)c(OC(=O)C(C)(C)C)c2nccnc21 [Compound C109] | 3 | 0 | 6 | 4 |
| CC(C)C(=O)Oc1c(-c2ccccc2C(F)(F)F)c(=O)n(C)c2nccnc12 [Compound C110] | 7 | 7 | 6 | 6 |
| CCn1c(=O)c(-c2c(F)ccc(F)c2Cl)c(OC(=O)CC(C)(C)C)c2nccnc21 [Compound C112] | 6 | 7 | 7 | 5 |
| C=CCC(=O)Oc1c(-c2c(F)ccc(F)c2Cl)c(=O)n(CC=C)c2nccnc12 [Compound C113] | 7 | 8 | 6 | 6 |
| Cc1ccc(Cl)c(-c2c(OC(=O)C(C)C)c3nccnc3n(C)c2=O)c1F [Compound C114] | 2 | 6 | 2 | 5 |
